According to patent US20060229264A1, “Crystalline 6-n-pyridylmethylaminoindolocarbazole compounds” (priority 2003, published 2006):

Columns and labels:
Assay type in all cases: physicochemical
[1] = Solid light stability test (25° C., 2000 lux light source, tight-closed vials); settings: after 4 weeks
Method: A solid light stability test of amorphous free bases and crystals of the compounds represented by the formula (II), the formula (III) and the formula (IV) is shown in Table 2. This test was carried out at 25° C. under the light source of 2000 luxes in tight-closed vials.

[2] = Hygroscopicity test (moisture sorption analyzer); settings: for Changes in weight under dehumidifying condition (desorption) compared with humidifying condition: desorption versus adsorption of water, FIG. 3 / FIG. 4; for Weight change rate upon humidification: relative humidity changed from 30% to 75% (adsorption process of water)
From the text: Comparing the hygroscopicity of amorphous free base of the compound represented by the above formula (II) with that of crystals of hydrochloride of the same compound, the weight of the amorphous free base increased by 7.6% under the moisturized condition (adsorption process of water), while the weight of the crystal increased as slightly as 1.5% in the case where the comparison was done changing the humidity from 30% to 75% which is the humidity for usual preservation. Thus, the weight change rate of the amorphous free base of the compound represented by the formula (II) upon humidification (relative humidity changes from 30% to 75%) was 7.6%. On the other hand, the weight change rate of the crystals of hydrochloride of the compound represented by the formula (II) upon humidification (relative humidity changes from 30% to 75%) was 1.5%, therefore, the influence by humidification was very little.
Hygroscopicity test was conducted by IGAsorp Moisture Sorption Analyzer, manufacture by Hiden Analytical Limited (refer to FIG. 3).

[3] = Test on solubility in water
From the text: Solubilities of crystals of intramolecular salts of the compounds of the formulae (II), (III) and (IV) and the corresponding amorphous free bases in water are shown below.

[4] = Solid thermostability test (accelerated test at 80° C. in tightly closed vials); settings: after 4 weeks
Method: A solid thermostability test of amorphous free bases and crystals of the compounds represented by the formula (II), the formula (III) and the formula (IV) is shown in Table 1. This test is an accelerated test conducted at 80° C. in tightly closed vials.

Structure (SMILES) | Residual Rate (light stability of solid) [1] [%] | Changes in weight under dehumidifying condition (desorption) compared with humidifying condition [2] | Weight change rate upon humidification [2] [%] | Solubility in water ([3]; listed as Amorphous free base of the compound represented by the formula (II)) | Residual Rate (thermostability of solid) [4] [%] | solubility [3] [µg/mL]
Cl.O=C1c2c(c3c4ccc(O)cc4n(C4OC(CO)C(O)C(O)C4O)c3c3[nH]c4cc(O)ccc4c23)C(=O)N1NCc1ccncc1 (centres unmarked) | 95.8 | nearly the same | 0.6 |  | 98.4 | 10000 to 50000
Cl.O=C1c2c(c3c4ccc(O)cc4n(C4OC(CO)C(O)C(O)C4O)c3c3[nH]c4cc(O)ccc4c23)C(=O)N1NCc1ccncc1CO (centres unmarked) | 94.3 | nearly the same | 1.5 |  |  | 10000 to 50000
O=C1c2c(c3c4ccc(O)cc4n(C4OC(CO)C(O)C(O)C4O)c3c3[nH]c4cc(O)ccc4c23)C(=O)N1NCc1ccncc1 (centres unmarked) [Crystals of free base of the compound of the formula (IV)] | 99.5 |  |  |  | 99.7 | 
O=C1c2c(c3c4ccc(O)cc4n(C4OC(CO)C(O)C(O)C4O)c3c3[nH]c4cc(O)ccc4c23)C(=O)N1NCc1ccncc1 (centres unmarked) |  |  |  |  |  | ≤ 1
O=C1c2c(c3c4ccc(O)cc4n(C4OC(CO)C(O)C(O)C4O)c3c3[nH]c4cc(O)ccc4c23)C(=O)N1NCc1cccc(CO)n1 (centres unmarked) | 78.9 |  |  |  | 66.6 | ≤ 1
O=C1c2c(c3c4ccc(O)cc4n(C4OC(CO)C(O)C(O)C4O)c3c3[nH]c4cc(O)ccc4c23)C(=O)N1NCc1ccncc1 (centres unmarked) [Amorphous free base of the compound of the formula (IV)] | 84.6 | significantly different | 2.8 |  | 82.9 | 

Other lines, results leading:

Residual Rate (light stability of solid) [1] [%] | Changes in weight under dehumidifying condition (desorption) compared with humidifying condition [2] | Weight change rate upon humidification [2] [%] | Solubility in water ([3]; listed as Amorphous free base of the compound represented by the formula (II)) | Residual Rate (thermostability of solid) [4] [%] | solubility [3] [µg/mL] | Structure (SMILES)
89.5 | greatly different | 7.6 | not more than 0.001 mg/mL | 87.8 |  | O=C1c2c(c3c4ccc(O)cc4n(C4OC(CO)C(O)C(O)C4O)c3c3[nH]c4cc(O)ccc4c23)C(=O)N1NCc1ccncc1CO (centres unmarked) [Amorphous free base of the compound of the formula (II)]
95.6 |  |  |  |  |  | O=C1c2c(c3c4ccc(O)cc4n(C4OC(CO)C(O)C(O)C4O)c3c3[nH]c4cc(O)ccc4c23)C(=O)N1NCc1ccncc1CO (centres unmarked) [Crystals of free base of the compound of the formula (II)]
 |  |  |  | 99.1 |  | O=C1c2c(c3c4ccc(O)cc4n(C4OC(CO)C(O)C(O)C4O)c3c3[nH]c4cc(O)ccc4c23)C(=O)N1NCc1ccncc1CO (centres unmarked) [Crystals of methanesulfonate of the compound of the formula ]
